In publication PMC8214221, “Sequence determinants in the cathelicidin LL-37 that promote inflammation via presentation of RNA to scavenger receptors” (The Journal of Biological Chemistry, 2021):
Residues, ends and D or L forms follow the SMILES beside them.

Assays:
[1] = test system: NHEKs, IL-6 secretion in response to U1 dsRNA; experiment: IL-6 secretion ELISA in NHEKs; type: cell-based, human; conditions: U1 dsRNA 2.5 μg/ml + peptide 2 μM, 18 h, n = 3
Outline: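 NHEKs (also HDMECs) exposed to LL-34 parent or alanine-scan peptides at 2 μM, alone or with U1 dsRNA (2.5 μg/ml), for 18 h. Secreted IL-6 in supernatant quantified by sandwich ELISA (n = 3).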

[2] = test system: NHEKs, differentially expressed genes; experiment: RNA-Seq transcriptomic profile of NHEKs; type: cell-based, human; conditions: U1 + peptide in comparison to U1 + LL-34 parent, protein-protein interaction networks from RNA-Seq
Text: RNA-Seq was utilized to obtain a global transcriptomic profile and map unique immune pathways in NHEKs exposed to U1 dsRNA, LL-34 parent, Pep I24A, Pep L31A, and a combination of U1 dsRNA and LL-34 parent, Pep I24A, or Pep L31A. […] Similarly, 448 and 325 unique differentially regulated genes were observed after U1 + I24A and U1 + L31A treatments, respectively (Fig. 3, A and B and Fig. S2, A and B). […] These pathways included type 1 interferon signaling, cytokine signaling, response to external biotic stimulus, and cytokine-mediated signaling pathway. […] We verified the repression of mitochondrial antiviral signaling (MAVS) with immunoblot analysis. NHEKs were treated with U1 dsRNA, LL-34 parent, Pep I24A, Pep L31A, or with a combination of U1 and LL-34 parent, U1 and Pep I24A, or U1 and Pep L31A (Fig. 3E).
RNA was extracted using a PureLink RNA Mini Kit (Life Technologies). Isolated RNA was submitted to the UCSD IGM Genomics Center for RNA-Seq performed on a high-output run V4 platform (Illumina) with a single-read 100 cycle runs. Data alignment was done on Partek Flow software (Partek) with Tophat2 (version 2.0.8). Gene Ontology enrichment analysis was performed on differentially regulated genes (≥1.5-fold) using Partek Flow software. The protein–protein interaction network was generated in the InnateDB database ([44]).

SMILES	IL-6 protein secretion, cotreatment with U1 dsRNA, vs U1 dsRNA + LL-34 parent [1]	Type I interferon signaling and RIGI antiviral pathway genes (STAT, ISG15, OAS1, IRF2, DDX58, MAVS) [2]
CC[C@H](C)[C@H](NC(=O)[C@H](CCCCN)NC(=O)[C@H](CCC(=O)O)NC(=O)[C@H](CCCCN)NC(=O)[C@H](CO)NC(=O)[C@H](CCCCN)NC(=O)[C@H](CCCNC(=N)N)NC(=O)[C@H](Cc1ccccc1)NC(=O)[C@H](Cc1ccccc1)NC(=O)[C@H](CC(=O)O)NC(=O)CNC(=O)[C@H](CC(C)C)NC(=O)[C@@H](N)CC(C)C)C(=O)NCC(=O)N[C@@H](CCCCN)C(=O)N[C@@H](CCC(=O)O)C(=O)N[C@@H](Cc1ccccc1)C(=O)N[C@@H](CCCCN)C(=O)N[C@@H](CCCNC(=N)N)C(=O)N[C@H](C(=O)N[C@H](C(=O)N[C@@H](CCC(N)=O)C(=O)N[C@@H](CCCNC(=N)N)C(=O)N[C@H](C(=O)N[C@@H](CCCCN)C(=O)N[C@@H](CC(=O)O)C(=O)N[C@@H](Cc1ccccc1)C(=O)N[C@@H](CC(C)C)C(=O)N[C@@H](CCCNC(=N)N)C(=O)N[C@@H](CC(N)=O)C(=O)N[C@@H](C)C(=O)N[C@H](C(=O)N1CCC[C@H]1C(=O)N[C@@H](CCCNC(=N)N)C(=O)O)C(C)C)[C@@H](C)CC)C(C)C)[C@@H](C)CC [LL-34—L31A] (H-LLGDFFRKSKEKIGKEFKRIVQRIKDFLRNAVPR-OH)	reduced secretion of IL-6 protein	–
CC[C@H](C)[C@H](NC(=O)[C@H](CCCCN)NC(=O)[C@H](CCC(=O)O)NC(=O)[C@H](CCCCN)NC(=O)[C@H](CO)NC(=O)[C@H](CCCCN)NC(=O)[C@H](CCCNC(=N)N)NC(=O)[C@H](Cc1ccccc1)NC(=O)[C@H](Cc1ccccc1)NC(=O)[C@H](CC(=O)O)NC(=O)CNC(=O)[C@H](CC(C)C)NC(=O)[C@@H](N)CC(C)C)C(=O)NCC(=O)N[C@@H](CCCCN)C(=O)N[C@@H](CCC(=O)O)C(=O)N[C@@H](Cc1ccccc1)C(=O)N[C@@H](CCCCN)C(=O)N[C@@H](CCCNC(=N)N)C(=O)N[C@H](C(=O)N[C@H](C(=O)N[C@@H](CCC(N)=O)C(=O)N[C@@H](CCCNC(=N)N)C(=O)N[C@@H](C)C(=O)N[C@@H](CCCCN)C(=O)N[C@@H](CC(=O)O)C(=O)N[C@@H](Cc1ccccc1)C(=O)N[C@@H](CC(C)C)C(=O)N[C@@H](CCCNC(=N)N)C(=O)N[C@@H](CC(N)=O)C(=O)N[C@@H](CC(C)C)C(=O)N[C@H](C(=O)N1CCC[C@H]1C(=O)N[C@@H](CCCNC(=N)N)C(=O)O)C(C)C)C(C)C)[C@@H](C)CC [LL-34—I24A] (H-LLGDFFRKSKEKIGKEFKRIVQRAKDFLRNLVPR-OH)	reduced secretion of IL-6 protein	repressed
